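Briefly, cells in 96-well plates were exposed to five compound concentrations for 48 h, and endpoints were estimated by linear interpolation. GI50 is the concentration that inhibits growth by half.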 Calls of active or inactive are those of the source. Rule as the data show it: active = GI50 up to about 1.1 µM and inactive = higher.
Columns and labels:
Assay in all cases: NCI tumour cell line growth inhibition, 48 h
SF-539 = test system: SF-539
HL-60 = test system: HL-60
IGROV-1 = test system: IGROV-1
Malme-3M = test system: Malme-3M
NCI-H522 = test system: NCI-H522
SNB-19 = test system: SNB-19
EKVX = test system: EKVX
K562 = test system: K562
TK-10 = test system: TK-10
SF-268 = test system: SF-268
OVCAR-5 = test system: OVCAR-5
CCRF-CEM = test system: CCRF-CEM
PC-3 = test system: PC-3
HCC 2998 = test system: HCC 2998
KM12 = test system: KM12
ACHN = test system: ACHN
BT-549 = test system: BT-549
NCI/ADR-RES = test system: NCI/ADR-RES
LOX IMVI = test system: LOX IMVI

Measured: GI50

CC1OC(OC2C(O)COC(OC3C(C)OC(OC4C(OC(=O)[C@]56CCC(C)(C)C[C@@H]5C5=CCC7[C@@]8(C)C[C@H](O)[C@H](OC9OC(CO)C(O)C(OC%10OC(CO)C(O)C(O)C%10O)C9O)[C@@](C)(CO)[C@@H]8CC[C@@]7(C)[C@]5(C)CC6)OCC(O)C4O)C(O)C3OC3OCC(O)C(O)C3O)C2O)C(O)C(O)C1O (stereo partly specified)
inactive: SF-539 14.6 µM | HL-60 3.72 µM | IGROV-1 6.12 µM | Malme-3M 10.1 µM | NCI-H522 9.93 µM | SNB-19 7.67 µM | EKVX 7.05 µM | K562 16.7 µM | TK-10 10 µM | SF-268 12.2 µM | OVCAR-5 7.43 µM | CCRF-CEM 10.4 µM | PC-3 4.36 µM | HCC 2998 2.07 µM | KM12 8.61 µM | ACHN 5.41 µM | BT-549 9.57 µM | NCI/ADR-RES 10.9 µM | LOX IMVI 13.2 µM

Cn1c(=O)cc(NNc2ccccc2)[nH]c1=O
inactive: SF-539 > 100 µM | HL-60 26.7 µM | IGROV-1 25.4 µM | Malme-3M 19.9 µM | NCI-H522 15.1 µM | SNB-19 > 100 µM | EKVX 36.1 µM | K562 38.2 µM | TK-10 30.3 µM | SF-268 44.3 µM | OVCAR-5 85.5 µM | CCRF-CEM 34.1 µM | PC-3 > 100 µM | HCC 2998 > 100 µM | KM12 26.3 µM | ACHN 36.4 µM | BT-549 > 100 µM | NCI/ADR-RES > 100 µM | LOX IMVI 14.9 µM

CC1C(C#N)(C#N)C(C#N)=C(N)C1(Cl)[N+](=O)[O-] (stereo unspecified)
inactive: SF-539 11.5 µM | HL-60 2.37 µM | IGROV-1 7.45 µM | Malme-3M 5.71 µM | NCI-H522 2.3 µM | SNB-19 19.3 µM | EKVX 17.8 µM | K562 2.88 µM | TK-10 14.9 µM | SF-268 14.9 µM | OVCAR-5 14.9 µM | CCRF-CEM 2.18 µM | PC-3 17.7 µM | HCC 2998 17.3 µM | KM12 18.7 µM | ACHN 11.3 µM | BT-549 13.3 µM | NCI/ADR-RES 16 µM | LOX IMVI 5.32 µM

C[C@H](CCC(=O)O)[C@H]1CC[C@@]2(C)[C@@H]3C(=O)C[C@H]4C(C)(C)[C@@H](O)CC[C@]4(C)[C@H]3C(=O)C[C@]12C
inactive: SF-539 > 100 µM | HL-60 25.1 µM | IGROV-1 > 100 µM | Malme-3M > 100 µM | NCI-H522 > 100 µM | SNB-19 > 100 µM | EKVX > 100 µM | K562 > 100 µM | TK-10 > 100 µM | SF-268 > 100 µM | OVCAR-5 > 100 µM | CCRF-CEM > 100 µM | PC-3 > 100 µM | HCC 2998 > 100 µM | KM12 > 100 µM | ACHN > 100 µM | BT-549 > 100 µM | NCI/ADR-RES > 100 µM | LOX IMVI > 100 µM

Reference: ChEMBL document CHEMBL1201862, “PubChem BioAssay data set” (2004)
